Data: patent US12089597B2, “Active ingredient combinations with insecticidal, nematicidal and acaricidal properties” (BAYER AKTIENGESELLSCHAFT, priority 2018, dated 2024)

Columns and labels:
[1] = system: Meloidogyne incognita; assay: Example A: Meloidogyne incognita test (gall formation on lettuce roots in sand); type: in vivo; details: nematicidal action by gall formation, 100% = no galls
Description: (§1) • The expected activity for a given combination of two active ingredients can be calculated as follows, according to S. R. Colby (“Calculating Synergistic and Antagonistic Responses of Herbicide Combinations”, Weeds 15, 20-22, 1967): • If • X is the kill rate, expressed as % of the untreated control, when using active ingredient A at an application rate of m g/ha or in a concentration of m ppm, • Y is the kill rate, expressed as % of the untreated control, when using active ingredient B at an application rate of n g/ha or in a concentration of n ppm and • E is the kill rate, expressed as % of the untreated control, when using active ingredients A and B at application rates of m and n g/ha or in a concentration of m and n ppm, • then
(§2) [formula] • If the actual kill rate is greater than the calculated kill rate (E), the action of the combination is superadditive, i.e. a synergistic effect is present.
(§3) Meloidogyne incognita Test
(§4) • Solvent: 125.0 parts by weight of acetone
(§5) To produce an appropriate active ingredient formulation, 1 part by weight of active ingredient is mixed with the stated amount of solvent and the concentrate is diluted to the desired concentration with water.
(§6) Vessels are filled with sand, active ingredient solution, an egg/larvae suspension of the southern root-knot nematode (Meloidogyne incognita) and lettuce seeds. The lettuce seeds germinate and the plants develop. The galls develop on the roots.
(§7) After the desired period of time, the nematicidal action is determined in % by the gall formation. 100% means that no galls were found; 0% means that the number of galls on the treated plants corresponds to the untreated control. The values ascertained are entered into Colby's formula.

[2] = system: Meloidogyne incognita; assay: Example B: Meloidogyne incognita test (gall formation on lettuce roots in sand); type: in vivo; details: nematicidal action by gall formation, 100% = no galls
Description: as §1, §2, §3, §4, §5, §6, §7

Row | Structure (SMILES) | Effect in % after 14 days ([1]; 3 ppm) | Effect in % after 14 days ([1]; 6 ppm) | Effect in % after 14 days ([1]; 12 ppm) | Effect in % after 14 days ([2]; 0.4 ppm) | Effect in % after 14 days ([2]; 0.8 ppm) | Effect in % after 14 days ([2]; 1.6 ppm) | Effect in % after 14 days ([1]; 1.2 ppm) | Effect in % after 14 days ([1]; 2.4 ppm) | Effect in % after 14 days ([1]; 4.8 ppm) | Effect in % after 14 days ([2]; 3.2 ppm) | Effect in % after 14 days ([2]; 6.4 ppm)
1 | O=C(Nc1ccn(-c2c(F)cccc2F)n1)c1ccccc1C(F)(F)F [Compound (B-1)] | 0% | 0% | 70% |  |  |  |  |  |  |  | 
2 | Cc1cc(Cl)cc(C)c1C1=C(O)C2(CCC3(CC2)OCCO3)NC1=O [Compound (I-2)] |  |  |  | 0% | 0% | 0% | 0% | 0% | 0% |  | 
3 | c1ccc(-c2noc(-c3cccs3)n2)cc1 [Tioxazafen (B-2), Tioxazafen] |  |  |  |  |  | 0% |  |  |  | 0% | 70%
